Assay [1] has as its target T1, indoleamine 2,3-dioxygenase (IDO) (Homo sapiens, UniProt P14902).
T1 construct: endogenous in cells; host or cells: HeLa (ATCC CCL-2), induced with IFNγ at 25 ng/mL
Nature of the assay: HeLa cell-based indoleamine 2,3-dioxygenase (IDO) assay, kynurenine production. Conditions: HeLa cells, IFNγ 25 ng/mL, 48 hour incubation, kynurenine absorbance at 480 nm. Here is the method: Assessment of Inhibitor Activity in HeLa Cell-Based Indoleamine 2,3-dioxygenase (IDO) Assay:
HeLa (ATCC® CCL-2) cells were obtained from the ATCC® and cultured in Dulbecco's Modified Eagle Medium supplemented with 4.5 g/L glucose, […] (#10-013-CV, Corning), 2 mM L-alanyl-L-glutamine dipeptide (#35050-061, Gibco), 100U/mL penicillin, 100 μg/mL streptomycin (#SV30010, HyClone) and 10% fetal bovine serum (#SH30071.03 HyClone). Cells were maintained in a humidified incubator at 37° C. in 5% CO2.
IDO activity was assessed as a function of kynurenine production as follows: HeLa cells were seeded in a 96-well culture plate at a density of 5,000 cells/well and allowed to equilibrate overnight. After 24 hours, the media was aspirated and replaced with media containing IFNγ (#285-IF/CF, R&D Systems) at a final concentration of 25 ng/mL. A serial dilution of each test compound was added to the cells in a total volume of 200 μL of culture medium. After a further 48 hour incubation, 170 μL of supernatant was transferred from each well to a fresh 96-well plate. 12.1 μL of 6.1N trichloroacetic acid (#T0699, Sigma-Aldrich) was added to each well and mixed, followed by incubation at 65° C. for 20 minutes to hydrolyze N-formylkynurenine, the product of indoleamine 2,3-dioxygenase, to kynurenine. The reaction mixture was then centrifuged for 10 mins at 500×g to sediment the precipitate. 100 μL of the supernatant was transferred from each well to a fresh 96-well plate. 100 μl of 2% (w/v) p-dimethylaminobenzaldehyde (#15647-7, Sigma-Aldrich) in acetic acid (#A6283, Sigma-Aldrich) was added to each well mixed and incubated at room temperature for 20 inns. Kynurenine concentrations were determined by measuring absorbance at 480 nm and calibrating against an L-kynurenine (#K8625, Sigma-Aldrich) standard curve using a SPECTRAMAX® M2e microplate reader (Molecular Devices). The percentage activity at each inhibitor concentration was determined and IC50 values assessed using nonlinear regression.

A further assay deals with T2, human IDO1 (Homo sapiens, UniProt P14902).
T2 construct: expressed in transfected cells
Nature of the assay: human IDO1/HEK293 cell IDO inhibition assay. It is filed as cell-based. Conditions: HEK293 cells stably expressing human IDO1, 20 hours incubation, absorbance at 490 nm; read-out: IDO1 HEK Human IC50. On the procedure:
HEK293 cells were transfected with a pCDNA-based mammalian expression vector harboring human IDO1 cDNA (NM 002164.2) by electroporation. They were cultured in medium (DMEM with 10% FBS) containing 1 mg/ml G418 for two weeks. Clones of HEK293 cells that stably expressed human IDO1 protein were selected and expanded for IDO inhibition assay.
The human IDO1/HEK293 cells were seeded at 10,000 cells per 50 μL per well with RPMI/phenol red free media contains 10% FBS in a 384-well black wall clear bottom tissue culture plate (Matrix Technologies LLC) 100 nL of certain concentration of compound was then added to each well using ECHO liquid handling systems. The cells were incubated for 20 hours in 37° C. incubator with 5% CO2.
The compound treatments were stopped by adding trichloroacetic acid (Sigma-Aldrich) to a final concentration at 0.2%. The cell plate was further incubated at 50° C. for 30 minute. The equal volume supernatant (20 μL) and 0.2% (w/v) Ehrlich reagent (4-dimethylaminobenzaldehyde, Sigma-Aldrich) in glacial acetic acid were mixed in a new clear bottom 384-well plate. This plate was then incubated at room temperature for 30 minute. The absorbance at 490 nm was measured on Envision plate reader.
Compound IC50 values were calculated using the counts of 500 nM of a reference standard treatment as one hundred percent inhibition, and counts of no compound but DMSO treatment as zero percent inhibition.

Structures are written as SMILES.

T2 sequence (P14902 whole entry): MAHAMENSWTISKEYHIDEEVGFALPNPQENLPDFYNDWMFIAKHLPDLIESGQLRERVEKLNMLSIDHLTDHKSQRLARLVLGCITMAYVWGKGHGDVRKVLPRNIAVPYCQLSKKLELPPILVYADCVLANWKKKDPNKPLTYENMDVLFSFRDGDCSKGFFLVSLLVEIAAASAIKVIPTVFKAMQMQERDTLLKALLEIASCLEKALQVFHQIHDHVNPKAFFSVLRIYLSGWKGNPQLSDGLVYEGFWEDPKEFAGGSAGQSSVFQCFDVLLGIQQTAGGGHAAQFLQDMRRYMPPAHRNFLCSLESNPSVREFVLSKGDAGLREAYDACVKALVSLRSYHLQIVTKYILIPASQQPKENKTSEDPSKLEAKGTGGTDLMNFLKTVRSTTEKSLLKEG
T1 sequence (P14902 whole entry): as above

In assay [1], `CC(NC(=O)C12CCC(Cl)(CC1)CC2)[C@H]1CC[C@]2(CC1)OCc1ccccc12` (mixture of isomers) [Example 13, rac-N-(1-((1s,4s)-3′H-Spiro[cyclohexane-1,1′-isobenzofuran]-4-yl)ethyl)-4-chlorobicyclo[2.2.2]octane-1-carboxamide] came in with an IC50 of 628 nM.
The same measure, in the same setting: for `CC(C(=O)NC12CC3CC(CC(C3)C1)C2)[C@H]1CC[C@@]2(CC1)OCc1ccccc12` (mixture of isomers) [Example 28, rac-N—((1R,3S)-Adamantan-1-yl)-2-((1R,4r)-3′H-spiro[cyclohexane-1,1′-isobenzofuran]-4-yl)propanamide] the value was 201 nM.
`O=C(C[C@H]1CC[C@@]2(CC1)OCc1ccccc12)Nc1ccc(Cl)cc1` [Example 1, N-(4-Chlorophenyl)-2-((1r,4r)-3′H-spiro[cyclohexane-1,1′-isobenzofuran]-4-yl)acetamide]: the results for the IC50 (in assay [1]; at human IDO1) were 114 nM and 100 nM, respectively.
`O=C(C[C@H]1CC[C@@]2(CC1)OCc1ccccc12)NC12CC3CC(CC(C3)C1)C2` [Example 2, N-((1R,3S)-Adamantan-1-yl)-2-((1R,4r)-3′H-spiro[cyclohexane-1,1′-isobenzofuran]-4-yl)acetamide] yielded an IC50 in assay [1] of 189 nM.
With `O=C(C[C@H]1CC[C@]2(CC1)OCc1ccccc12)Nc1ccc(Cl)cc1` [Example 3, N-(4-Chlorophenyl)-2-((1s,4s)-3′H-spiro[cyclohexane-1,1′-isobenzofuran]-4-yl)acetamide], the IC50 amounted to 219 nM in assay [1] and 511 nM at human IDO1.
The corresponding values for `C[C@H](C(=O)Nc1ccc(Cl)cc1)[C@H]1CC[C@@]2(CC1)COc1ccccc12` [Example 15, (S)—N-(4-Chlorophenyl)-2-((1'S,4′r)-2H-spiro[benzofuran-3,1′-cyclohexan]-4′-yl)propanamide] are 20 nM and 17 nM.

These data come from patent publication US11203592B2, “Inhibitors of indoleamine 2,3-dioxygenase and methods of their use” (BRISTOL-MYERS SQUIBB COMPANY, priority 2017, dated 2021).
